In patent US20050032713A1, “Platelet-activating factor antagonists as analgesic, anti-inflammatory, uterine contraction inhibiting, and anti-tumor agents” (priority 2002, published 2005):
Like-named read-outs stand apart in the source and are kept apart here.

What was measured:
[1] = test system: COX-2; experiment: COX-2 protein level after mc-PAF stimulation (immunocytochemical and Western blot analyses); format: cell-based, rat; conditions: within 30 min of mc-PAF stimulation; data not shown
[2] = test system: COX-1; experiment: COX-1 protein level after mc-PAF stimulation (immunocytochemical and Western blot analyses); format: cell-based, rat; conditions: within 30 min of mc-PAF stimulation; data not shown
[3] = test system: primary cortical astrocytes; experiment: Effect of COX inhibitors on mc-PAF-induced PGE2 release from primary astrocytes (Example 3); format: cell-based, rat; conditions: mc-PAF 0.001 to 1 μM, 30 min
Method: Mc-PAF (Cayman Chemical, Ann Arbor, Mich.) was dissolved in ethanol at a stock concentration of 10 mM. Indomethacin, piroxicam, NS-398 (Biomol; Plymouth Meeting, Mass.), and SC-560 (Cayman Chemical) were dissolved in 45% hydroxy-β-cyclodextrin (HBC; Sigma, St. Louis, Mo.). Cells were serum-deprived for 24 hrs prior to experimental treatments to induce quiescence. Where treatment with inhibitors is indicated, these compounds were added 30 min prior to the addition of mc-PAF.
Direct assay of the PGE2 concentration in cell-conditioned medium was used as an index of PGE2 secretion by primary astrocytes. PGE2 levels were measured by ELISA according to manufacturer's instructions (Cayman Chemicals, Ann Arbor, Mich.), as described.
Results were derived from at least 3 separate experiments, assayed in duplicate or triplicate (n=6−8). Data were expressed as means+/−SEMs. Statistical analyses were performed using ANOVAs for comparisons between groups, followed by Fischer's PLSD post hoc comparisons by means contrast. p values <0.05 were considered statistically significant.

[4] = test system: astrocyte-enriched cortical cell cultures
[5] = test system: astrocyte-enriched cortical cell cultures; experiment: PGE2 release (ELISA) from astrocyte-enriched cortical cell cultures exposed to PAF analogs, related lipids or AA; format: cell-based, rat
Method: All experimental protocols were approved by the Massachusetts Institute of Technology institutional review committee and meet the guidelines of the National Institutes of Health. Dissociated astrocytes were cultured from cortices of postnatal day 1-2 rat pups (as described by K. D. McCarthy, et al., Preparation of separate astroglial and oligodendroglial cell cultures from rat cerebral tissue, J. Cell Biol. 85 (1980) 890-902, with minor modifications R. K. K. Lee, et al., Metabolic glutamate receptors increase amyloid precursor protein processing in astrocytes: inhibition by cyclic AMP, J. Neurochem. 68 (1997) 1830-1835.) In brief, cells from dissociated cortices were plated onto poly-L-lysine coated 35- or 100 mm culture dishes. The initial culture media, minimal essential medium (MEM, Gibco-Life Technologies; Rockville, Md.) containing 15% horse serum (BioWhittaker; Walkersville, Md.), were aspirated 2-5 h after plating to remove unattached cells and debris, and replaced with MEM containing 5% fetal bovine serum (FBS, BioWhittaker; Walkersville, Md.). Half the medium was replaced with MEM/5% FBS twice weekly. Astrocytes were kept at 37° C. in a humidified 5% CO2/95% air incubator for 9-15 days, by which time the cultures were confluent and could be used for experiments.
Mc-PAF (Biomol; Plymouth Meeting, PA) was dissolved in methanol at a stock concentration of 10 mM. PAF-16, PAF-18, lyso-PAF, AA (Cayman Chemicals), lyso-PC and PC (Sigma) were dissolved in ethanol at stock concentrations of 10 mM. All stock solutions of lipids were stored at −80° C. and were used within 6 weeks of reconstitution. BN 52021 and CV 6209 (Biomol) were dissolved in ethanol. These PAF antagonists were stored at −20° C. in stock concentrations of 100 mM. BN 50730 (Biomeasure; Milford, Mass.) was dissolved in 45% hydroxy-B-cyclodextrin (HBC). All agents were diluted in warned serum-free medium prior to cell stimulation. Equal amounts of vehicle was added to control cells.
Cells used for all experiments were established in vitro 9-15 days prior to use in experiments and were over 95% confluent. Serum-containing media were changed every 3-4 days. Cells were serum-deprived 24 hours prior to experimental treatments. Where treatment with PAF antagonists is indicated, these compounds were added 30 minutes prior to the addition of other agents.
PGE2 levels were measured by ELISA according to manufacturer's instructions (Cayman Chemicals, Ann Arbor, Mich.). Since the amount of PGE2 in fresh medium was negligible, (J. Luo, et al., Transforming growth factor B1 regulates the expression of cyclooxygenase in cultured cortical astrocytes and neurons, J. Neurochem. 71 (1998) 526-534), direct assays of the PGE2 concentration in cell-conditioned medium was used as a measurement of PGE2 secretion by cultured cells. Results were derived from at least 3 separate experiments, assayed in duplicate or triplicate (n=6-8). The reliable detection limit of this assay (i.e. sensitivity) averaged 14+/−6 pg of PGE2.

## CCCCCCCCCCCCCCCCOC[C@H](COP(=O)([O-])OCC[N+](C)(C)C)OC(=O)NC [mc-PAF, methylcarbamyl-PAF]
[1]
  COX-2 protein levels: did not increase
[2]
  COX-1 protein levels: did not increase
[3]
  release of PGE2 into the conditioned media: concentration-dependent increases
[4]; 1 μM mc-PAF
  toxicity to cells: does not appear to have toxic effects
[4]; 10 μM mc-PAF, 24 hours
  toxicity to cells: cytologic evidence of toxicity
[5]; 1 μM mc-PAF
  time at which PGE2 levels returned to baseline: ≤ 12 h
  time of maximum mobilization of PGE2: 30 min
  time of second, smaller peak of PGE2 release: 8 h
  time to first observed increase in PGE2 release: ≤ 5 min
[5]; 1 μM mc-PAF, 37° C., various times
  PGE2 release over time: time-dependent increase
[5]; 30 min, 37° C., various concentrations
  PGE2 release into the conditioned media: concentration-dependent increases
